# Source: ChEMBL document CHEMBL4376867 (J Med Chem, 2020)
# pIC50: −log10 of the molar value.
# How the values were obtained:
# Cytochrome P450 3A4 = Cytochrome P450 3A4 (Homo sapiens, UniProt P08684); assay: Inhibition of CYP3A4 (unknown origin); format: ADME
# [1] = Hepatic extraction ratio in rat liver microsomes at 1 uM measured upto 60 mins by LC-MS/MS analysis
# [2] = Distribution coefficient, log D of compound at pH 7.5; format: physicochemical; settings: octanol/water
# [3] = Volume of distribution at steady state in Wistar rat at 0.30 mg/kg, iv via bolus or 0.30 mg/kg, po measured upto 24 hrs by LC-MS/MS analysis; format: ADME, organism-based; settings: in vivo, 0.3 mg/kg, read-out: Vdss
# [4] = Toxicity in NMRI nude mouse xenografted with human SK-MEL-2 cells harboring NRAS/TP53 mutation assessed as body weight loss at 200 mg/kg, po bid for 35 days relative to control; format: organism-based; settings: in vivo, 840 h
# Mus musculus [5] = assay: Time required for unbound plasma concentration to reach IC50 for recombinant full length human N-terminal His-tagged TBK1 in NMRI mouse at 100 mg/kg, po; format: ADME, organism-based; settings: in vivo
# [6] = Clearance in Han Wistar rat hepatocytes at 1 uM measured upto 90 mins by LC-MS/MS analysis; format: ADME, cell-based, Hepatocyte
# SK-MEL-2 [7] = assay: Antitumor activity against human SK-MEL-2 cells harboring NRAS/TP53 mutation xenografted in NMRI nude mouse assessed as relative tumor area by measuring T/C ratio at 200 mg/kg, po bid measured after 35 days compound treatment; format: functional
# [8] = Toxicity in NMRI mouse xenografted with human SK-MEL-2 cells assessed as maximum tolerated dose administered orally bid for 35 days; settings: in vivo, po
# [9] = target: Voltage-gated inwardly rectifying potassium channel KCNH2 (Homo sapiens, UniProt Q12809); assay: Inhibition of human ERG
# Chain of Voltage-gated inwardly rectifying potassium channel KCNH2 (Q12809 whole entry): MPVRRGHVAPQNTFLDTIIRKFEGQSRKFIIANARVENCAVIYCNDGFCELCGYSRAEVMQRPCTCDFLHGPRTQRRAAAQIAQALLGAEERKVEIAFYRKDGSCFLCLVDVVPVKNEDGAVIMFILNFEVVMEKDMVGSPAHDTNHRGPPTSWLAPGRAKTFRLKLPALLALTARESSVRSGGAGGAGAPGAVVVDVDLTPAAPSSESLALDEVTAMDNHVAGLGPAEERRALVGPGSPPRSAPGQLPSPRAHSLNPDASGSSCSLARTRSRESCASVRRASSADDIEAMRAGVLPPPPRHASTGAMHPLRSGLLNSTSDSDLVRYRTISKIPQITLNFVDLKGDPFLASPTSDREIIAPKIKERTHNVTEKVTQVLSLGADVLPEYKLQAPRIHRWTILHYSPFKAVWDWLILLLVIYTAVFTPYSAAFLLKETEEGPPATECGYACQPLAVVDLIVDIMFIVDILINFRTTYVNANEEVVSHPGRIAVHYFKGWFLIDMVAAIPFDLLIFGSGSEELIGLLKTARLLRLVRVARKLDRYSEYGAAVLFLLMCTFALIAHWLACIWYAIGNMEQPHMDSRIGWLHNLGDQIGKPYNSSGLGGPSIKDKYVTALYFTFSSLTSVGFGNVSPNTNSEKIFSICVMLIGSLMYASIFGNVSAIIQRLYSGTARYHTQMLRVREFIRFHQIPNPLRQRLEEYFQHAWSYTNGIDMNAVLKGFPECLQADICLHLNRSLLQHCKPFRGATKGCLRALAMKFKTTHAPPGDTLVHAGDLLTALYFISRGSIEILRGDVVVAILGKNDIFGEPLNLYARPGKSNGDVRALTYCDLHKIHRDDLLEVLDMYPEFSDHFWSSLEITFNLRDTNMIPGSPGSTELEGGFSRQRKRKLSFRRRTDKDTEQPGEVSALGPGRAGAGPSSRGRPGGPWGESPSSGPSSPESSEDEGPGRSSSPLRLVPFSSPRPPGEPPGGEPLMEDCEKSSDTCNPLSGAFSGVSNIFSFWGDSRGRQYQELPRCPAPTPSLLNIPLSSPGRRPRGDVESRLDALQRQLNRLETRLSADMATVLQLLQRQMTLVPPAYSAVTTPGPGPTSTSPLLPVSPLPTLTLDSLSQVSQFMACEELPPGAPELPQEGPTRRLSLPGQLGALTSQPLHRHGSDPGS
# [10] = Terminal half life in Wistar rat at 0.30 mg/kg, iv via bolus or 0.30 mg/kg, po measured upto 24 hrs by LC-MS/MS analysis; format: ADME, organism-based; settings: in vivo, 0.3 mg/kg, read-out: beta t1/2 (converted)
# SK-MEL-2 [11] = assay: Antitumor activity against human SK-MEL-2 cells harboring NRAS/TP53 mutation xenografted in NMRI nude mouse assessed as tumor weight by measuring T/C ratio at 200 mg/kg, po bid measured after 35 days compound treatment; format: functional
# [12] = Hepatic extraction ratio in Han Wistar rat hepatocytes at 1 uM measured upto 90 mins by LC-MS/MS analysis
# Cytochrome P450 2C9 = Cytochrome P450 2C9 (Homo sapiens, UniProt P11712); assay: Inhibition of CYP2C9 (unknown origin); format: ADME
# Chain of Cytochrome P450 2C9 (P11712 whole entry): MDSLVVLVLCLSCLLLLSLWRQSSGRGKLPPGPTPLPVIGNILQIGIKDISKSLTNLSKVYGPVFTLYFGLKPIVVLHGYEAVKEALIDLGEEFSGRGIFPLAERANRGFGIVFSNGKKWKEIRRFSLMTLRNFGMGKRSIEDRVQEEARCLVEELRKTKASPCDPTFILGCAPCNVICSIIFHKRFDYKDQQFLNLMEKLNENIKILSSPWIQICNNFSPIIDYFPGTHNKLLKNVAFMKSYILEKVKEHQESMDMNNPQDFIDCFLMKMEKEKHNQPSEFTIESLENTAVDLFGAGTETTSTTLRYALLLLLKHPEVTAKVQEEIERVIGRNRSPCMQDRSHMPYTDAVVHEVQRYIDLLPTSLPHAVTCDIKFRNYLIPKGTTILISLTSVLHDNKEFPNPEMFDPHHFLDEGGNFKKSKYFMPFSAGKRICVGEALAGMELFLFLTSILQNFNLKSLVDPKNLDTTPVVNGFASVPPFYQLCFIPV
# Cytochrome P450 2C8 = target: T1, Cytochrome P450 2C8 (Homo sapiens, UniProt P10632); assay: Inhibition of CYP2C8 (unknown origin); format: ADME
# T1 sequence (P10632 whole entry): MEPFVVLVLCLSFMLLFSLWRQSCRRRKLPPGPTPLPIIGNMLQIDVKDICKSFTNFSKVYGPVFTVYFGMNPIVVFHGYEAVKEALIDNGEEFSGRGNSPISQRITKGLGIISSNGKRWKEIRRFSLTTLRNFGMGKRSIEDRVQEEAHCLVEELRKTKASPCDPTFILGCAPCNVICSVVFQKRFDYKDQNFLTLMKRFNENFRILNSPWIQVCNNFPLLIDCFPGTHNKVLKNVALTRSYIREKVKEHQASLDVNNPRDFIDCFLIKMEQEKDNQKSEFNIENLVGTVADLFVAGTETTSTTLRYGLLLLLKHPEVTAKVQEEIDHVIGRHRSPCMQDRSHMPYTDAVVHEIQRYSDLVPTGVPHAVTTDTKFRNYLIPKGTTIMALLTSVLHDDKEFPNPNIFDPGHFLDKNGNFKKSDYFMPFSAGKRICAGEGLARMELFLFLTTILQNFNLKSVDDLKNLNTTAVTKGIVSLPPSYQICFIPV
# [13] = Hepatic extraction in Wistar rat at 0.30 mg/kg, iv via bolus or 0.30 mg/kg, po measured upto 24 hrs by LC-MS/MS analysis; settings: in vivo, 0.3 mg/kg
# Cytochrome P450 2D6 = Cytochrome P450 2D6 (Homo sapiens, UniProt P10635); assay: Inhibition of CYP2D6 (unknown origin); format: ADME
# Chain of Cytochrome P450 2D6 (P10635 whole entry): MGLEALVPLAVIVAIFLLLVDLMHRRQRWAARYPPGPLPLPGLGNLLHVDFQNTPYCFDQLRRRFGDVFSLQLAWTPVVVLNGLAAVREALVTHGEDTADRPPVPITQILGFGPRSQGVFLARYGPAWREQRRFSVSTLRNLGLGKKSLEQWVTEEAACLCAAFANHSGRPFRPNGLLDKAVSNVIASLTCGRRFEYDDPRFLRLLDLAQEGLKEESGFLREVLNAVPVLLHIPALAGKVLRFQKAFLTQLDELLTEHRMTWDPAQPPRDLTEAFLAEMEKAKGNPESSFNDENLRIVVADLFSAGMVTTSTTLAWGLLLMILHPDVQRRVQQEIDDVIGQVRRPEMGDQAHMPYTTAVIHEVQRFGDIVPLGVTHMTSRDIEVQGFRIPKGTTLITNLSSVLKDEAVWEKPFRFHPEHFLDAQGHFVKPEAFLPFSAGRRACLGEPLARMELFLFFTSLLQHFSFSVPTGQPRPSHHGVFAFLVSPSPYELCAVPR
# Cytochrome P450 1A2 = target: T2, Cytochrome P450 1A2 (Homo sapiens, UniProt P05177); assay: Inhibition of CYP1A2 (unknown origin); format: ADME
# T2 sequence (P05177 whole entry): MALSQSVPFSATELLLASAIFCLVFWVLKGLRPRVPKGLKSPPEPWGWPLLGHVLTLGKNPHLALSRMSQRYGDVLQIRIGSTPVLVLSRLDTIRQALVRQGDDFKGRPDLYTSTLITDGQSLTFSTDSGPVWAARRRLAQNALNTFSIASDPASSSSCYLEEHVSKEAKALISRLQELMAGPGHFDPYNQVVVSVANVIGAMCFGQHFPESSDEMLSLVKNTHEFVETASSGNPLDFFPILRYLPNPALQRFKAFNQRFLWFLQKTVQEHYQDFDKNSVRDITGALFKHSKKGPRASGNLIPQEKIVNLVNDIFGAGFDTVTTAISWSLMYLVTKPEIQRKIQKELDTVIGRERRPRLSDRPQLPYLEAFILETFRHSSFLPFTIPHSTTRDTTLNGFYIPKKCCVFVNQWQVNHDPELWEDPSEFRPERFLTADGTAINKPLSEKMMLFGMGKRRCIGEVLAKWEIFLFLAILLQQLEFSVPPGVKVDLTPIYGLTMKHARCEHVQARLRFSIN
# [14] = Clearance in human liver microsomes at 1 uM measured upto 60 mins in presence of NADP by LC-MS/MS analysis; format: ADME, Microsome; settings: 1 h
# [15] = Oral bioavailability in Wistar rat at 0.30 mg/kg measured upto 24 hrs by LC-MS/MS analysis; format: ADME, organism-based; settings: in vivo, 0.3 mg/kg
# [16] = Clearance in rat liver microsomes at 1 uM measured upto 60 mins by LC-MS/MS analysis; format: ADME, Microsome; settings: 1 h
# Mus musculus [17] = assay: Time required for unbound plasma concentration to reach IC50 for IKKepsilon/TBK1 in human MDB-MB-231 cells transduced with lentiviral vector expressing human IRF3 in NMRI mouse at 100 mg/kg, po; format: ADME, organism-based; settings: in vivo
# Chain of Cytochrome P450 3A4 (P08684 whole entry): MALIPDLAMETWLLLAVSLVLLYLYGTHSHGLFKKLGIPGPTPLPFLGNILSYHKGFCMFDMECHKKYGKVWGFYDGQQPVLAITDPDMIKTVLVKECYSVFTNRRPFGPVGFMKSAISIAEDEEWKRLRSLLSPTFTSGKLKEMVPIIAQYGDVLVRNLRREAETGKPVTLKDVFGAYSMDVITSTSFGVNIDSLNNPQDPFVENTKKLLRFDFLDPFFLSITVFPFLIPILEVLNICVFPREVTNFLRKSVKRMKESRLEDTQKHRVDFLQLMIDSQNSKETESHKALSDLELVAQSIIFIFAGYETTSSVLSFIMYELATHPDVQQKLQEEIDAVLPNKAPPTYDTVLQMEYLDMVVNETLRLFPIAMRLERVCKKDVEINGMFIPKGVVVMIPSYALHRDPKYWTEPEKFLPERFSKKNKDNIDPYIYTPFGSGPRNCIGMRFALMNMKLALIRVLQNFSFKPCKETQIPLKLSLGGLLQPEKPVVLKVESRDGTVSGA
smiles,measurement,setting,value
C[C@H](c1ccnc(Nc2nc3ccc(-c4cc(N(C)C)ncn4)cc3[nH]2)c1)N1CCN(C(=O)CC(F)(F)F)CC1 [BAY-985],pIC50,Cytochrome P450 3A4,< 4.70
same,"hepatic extraction ratio at 1 h, 1 µM",[1],0.4
same,logD,[2],2.5
same,Vd,[3],2.9 L/kg
same,Activity,[4],< 10%
same,Time,Mus musculus [5],10 h
same,CLH,[6],28.3 mL/min/kg
same,T/C,SK-MEL-2 [7],0.8
same,MTD at 840 h,[8],200 mg/kg
same,pIC50,[9],5.33
same,half-life,[10],47.4 min
same,T/C,SK-MEL-2 [11],0.6
same,"hepatic extraction ratio at […], 1 µM",[12],0.4
same,pIC50,Cytochrome P450 2C9,4.77
same,pIC50,Cytochrome P450 2C8,6.07
same,hepatic extraction ratio at 24 h,[13],0.95
same,pIC50,Cytochrome P450 2D6,< 4.70
same,pIC50,Cytochrome P450 1A2,< 4.70
same,CLH,[14],8.3 mL/min/kg
same,bioavailability,[15],11%
same,CLH,[16],28.3 mL/min/kg
same,Time,Mus musculus [17],11 h
